Measured values published in patent publication US11332459B2 (TEIJIN PHARMA LIMITED, priority 2017, dated 2022).
Structures can show the parent of a compound that is named as a salt.

Biological target: T1, human TRPC6 (Homo sapiens, UniProt Q9Y210)
T1 construct: expressed in transfected cells
T1 sequence (Q9Y210 1-931): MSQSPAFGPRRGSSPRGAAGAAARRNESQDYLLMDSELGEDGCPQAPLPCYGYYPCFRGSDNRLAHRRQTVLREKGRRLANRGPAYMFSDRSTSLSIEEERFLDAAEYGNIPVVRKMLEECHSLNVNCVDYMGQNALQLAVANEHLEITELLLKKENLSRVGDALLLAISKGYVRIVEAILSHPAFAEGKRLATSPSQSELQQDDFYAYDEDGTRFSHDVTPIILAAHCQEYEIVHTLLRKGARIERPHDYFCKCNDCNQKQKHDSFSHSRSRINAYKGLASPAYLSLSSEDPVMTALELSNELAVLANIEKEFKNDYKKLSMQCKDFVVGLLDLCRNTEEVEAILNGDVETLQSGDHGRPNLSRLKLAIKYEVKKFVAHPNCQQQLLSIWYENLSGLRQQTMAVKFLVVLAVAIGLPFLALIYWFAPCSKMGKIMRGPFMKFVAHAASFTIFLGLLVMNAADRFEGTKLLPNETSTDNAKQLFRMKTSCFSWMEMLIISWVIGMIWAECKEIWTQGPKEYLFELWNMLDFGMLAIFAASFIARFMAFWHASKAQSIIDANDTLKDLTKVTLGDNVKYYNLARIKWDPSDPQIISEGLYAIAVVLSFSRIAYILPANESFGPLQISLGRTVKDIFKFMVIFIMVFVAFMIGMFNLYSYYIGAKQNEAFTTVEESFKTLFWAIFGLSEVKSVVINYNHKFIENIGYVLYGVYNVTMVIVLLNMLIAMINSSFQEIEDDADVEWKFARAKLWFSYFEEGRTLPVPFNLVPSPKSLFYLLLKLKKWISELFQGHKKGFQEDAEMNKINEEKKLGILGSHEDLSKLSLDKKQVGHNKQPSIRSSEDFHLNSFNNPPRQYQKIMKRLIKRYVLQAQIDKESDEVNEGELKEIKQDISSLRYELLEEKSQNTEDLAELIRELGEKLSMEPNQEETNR
Assay: TRPC6 calcium flux assay (FLIPR, OAG-stimulated calcium influx)
Type: cell-based
Details: HEK293 cells stably transfected with human TRPC6, read-out: hTRPC6 Potency
Method: Biological Example 1 TRPC6 Calcium Flux Assay
Potency of TRPC6 (Transient receptor potential channel family C6) inhibitors were measured by their inhibition of Calcium influx trigged by […] (1-Oleoyl-2-acetyl-sn-glycerol, Millipore Sigma, O6754) stimulation on HEK293 cells stablely transfected with human TRPC6 using a FLIPR tetra system. Cells were grown in a humidified environment at 37° C. under 5% CO2 using the growth medium with the following selective reagents (Dulbecco's Modified Eagle's Medium (DMEM) high glucose, 10% Fetal Bovine Serum, 1×PSGlu (penicillin-streptomycin glutamine), 1×NEAA (Non-essential amino acid), 1× Na Pyruvate and 200 ug/ml Hygromycin). For general passage, cells were grown to 70-90% confluency; the media was removed, and the cells were gently washed 2 times with calcium and magnesium free PBS (phosphate-buffered saline). Trypsin (3 mL) was applied for 5 minutes at 37° C. The cells were dislodged by rapping flask against base of a hand and 7 mL of growth medium was added to deactivate trypsin and re-suspend cells. The usual splitting schedule was 1:5 every 2-3 days.
Cells were plated the day before the assay, plating cell density is 1.0-1.5×10^4/25 μl/well in poly-D-lysine (PDL) coated 384-well plates using either multichannel pipettes or multidrop. These cells were first incubated with fluorescence dye at room temperature for 90-120 minutes after they were grown on PDL-coated 384-well black plates overnight (Dye loading buffer 10 ml example: 9 mL assay buffer, 1 mL, 10×PBX signal enhancer, 10 μL Calcium indicator). The cells were incubated with a dose of compounds for 25 minutes before being stimulated with TRPC6 agonist OAG. The OAG solution was prepared by adding OAG into assay buffer (Ca ringer solution base: 10 mM HEPES (4-(2-hydroxyethyl)-1-piperazine-ethanesulfonic acid), 4 mM MgCl2, 120 mM NaCl, 5 mM KCl, pH=7.2 @25° C.)+0.1% BSA+2 mM CaCl2) to the concentration of 0.2 mM/2% DMSO, which achieves a final on cell concentration of 50 uM/0.5% DMSO. 12.5 uL OAG mixture was added and the activation of the TRPC6 channel was measured by the change of intracellular Calcium levels on FLIPR terra system.
Data was acquired by measuring the fluorescent peak signal subtracted from the background during the 180 second imaging frame. Each data point is further normalized to 100% of OAG triggered signal vs. buffer. Table 16 provides the IC50 for each compound, which data is obtained by plotting peak signal over the compound dose.

IC50 | SMILES
237 nM | N#Cc1ccc(Cn2c(N3CC[C@H](F)[C@H](N)C3)nc3cc(F)cc(F)c32)nc1 [Example 66, 6-((2-((3R,4S)-3-amino-4-fluoropiperidin-1-yl)-5,7-difluoro-1H-benzo[d]imidazol-1-yl)methyl)nicotinonitrile]
1.09 nM | N[C@@H]1CN(c2nc3ccccc3n2Cc2ccc(Cl)cn2)CC[C@H]1F [Example 211, (3R,4R)-1-(1-((5-chloropyridin-2-yl)methyl)-1H-benzo[d]imidazol-2-yl)-4-fluoropiperidin-3-amine hydrochloride]
> 3750 nM | CNC(=O)C1CCN(C(=O)Cn2c(N3CC[C@@H](F)[C@H](N)C3)nc3cc(F)c(F)cc32)CC1 [Example 534, 1-(2-(2-((3R,4R)-3-amino-4-fluoropiperidin-1-yl)-5,6-difluoro-1H-benzo[d]imidazol-1-yl)acetyl)-N-methylpiperidine-4-carboxamide]
687 nM | C[C@H](NC(=O)Cn1c(N2CC[C@@H](F)[C@H](N)C2)nc2ccc(F)cc21)c1ccccn1 [Example 666, 2-(2-((3R,4R)-3-amino-4-fluoropiperidin-1-yl)-6-fluoro-1H-benzo[d]imidazol-1-yl)-N-((S)-1-(pyridin-2-yl)ethyl)acetamide]
657 nM | N[C@@H]1CN(c2nc3cc(F)c(F)cc3n2CC(=O)N2CCCC3COCCC32)CC[C@H]1F (stereo partly drawn) [Example 639, 2-(2-((3R,4R)-3-amino-4-fluoropiperidin-1-yl)-5,6-difluoro-1H-benzo[d]imidazol-1-yl)-1-(octahydro-1H-pyrano[4,3-b]pyridin-1-yl)ethanone]
1.61 nM | N#Cc1ccc(Cn2c(N3CC[C@H](F)[C@H](N)C3)nc3cc(Cl)ccc32)nc1 [Example 9, 6-((2-((3R,4S)-3-amino-4-fluoropiperidin-1-yl)-5-chloro-1H-benzo[d]imidazol-1-yl)methyl)nicotinonitrile]
178 nM | CN(C)C(=O)Cn1c(N2CC[C@@H](F)[C@H](N)C2)nc2ccc(OC(F)(F)F)cc21 [Example 468, 2-(2-((3R,4R)-3-amino-4-fluoropiperidin-1-yl)-6-(trifluoromethoxy)-1H-benzo[d]imidazol-1-yl)-N,N-dimethylacetamide]
376 nM | N[C@@H]1CN(c2nc3cc(F)c(F)cc3n2Cc2cccc3ncccc23)CC[C@H]1F [Example 260, (3R,4R)-1-(5,6-difluoro-1-(5-quinolinylmethyl)-1H-benzimidazol-2-yl)-4-fluoro-3-piperidinamine]
1820 nM | N[C@@H]1CCCN(c2nc3ccccc3n2Cc2ccc(Cl)c(F)c2)C1 [Example 391, (R)-1-(1-(4-chloro-3-fluorobenzyl)-1H-benzo[d]imidazol-2-yl)piperidin-3-amine]
60.4 nM | N[C@@H]1CN(c2nc3cc(F)c(F)cc3n2CC(=O)N2CCOC3CCOCC32)CC[C@H]1F (mixture of isomers) [Example 620, 2-(2-((3R,4R)-3-amino-4-fluoropiperidin-1-yl)-5,6-difluoro-1H-benzo[d]imidazol-1-yl)-1-(hexahydropyrano[4,3-b][1,4]oxazin-4(7H)-yl)ethanone]
1.39 nM | N#Cc1ccc(Cn2c(N3CC[C@@H](F)[C@H](N)C3)nc3cc(F)c(F)cc32)cc1Cl [Example 346, 4-((2-((3R,4R)-3-amino-4-fluoro-1-piperidinyl)-5,6-difluoro-1H-benzimidazol-1-yl)methyl)-2-chlorobenzonitrile]
> 50000 nM | C[C@@H](c1ccc(C#N)cc1)n1c(N2CCC[C@H](N)C2)nc2ccccc21 [Example 314, 4-((S)-1-(2-((S)-3-aminopiperidin-1-yl)-1H-benzo[d]imidazol-1-yl)ethyl)benzonitrile hydrochloride]
314 nM | C[C@H]1CCN(c2nc3ccccc3n2Cc2ccc(C#N)cc2)C[C@@H]1N [Example 182, 4-((2-((3R,4S)-3-amino-4-methylpiperidin-1-yl)-1H-benzo[d]imidazol-1-yl)methyl)benzonitrile 2,2,2-trifluoroacetate]
14 nM | COc1ccc2c(c1)nc(N1CC[C@@H](F)[C@H](N)C1)n2Cc1ccc(C#N)cn1 [Example 145, 6-((2-((3R,4R)-3-amino-4-fluoropiperidin-1-yl)-5-methoxy-1H-benzo[d]imidazol-1-yl)methyl)nicotinonitrile hydrochloride]
11.9 nM | CS(=O)(=O)c1ccc(Cn2c(N3CC[C@@H](F)[C@H](N)C3)nc3c(F)cc(F)cc32)nc1 [Example 556, (3R,4R)-1-(4,6-difluoro-1-((5-(methylsulfonyl)pyridin-2-yl)methyl)-1H-benzo[d]imidazol-2-yl)-4-fluoropiperidin-3-amine]
354 nM | N[C@@H]1CN(c2nc3cc(F)c(F)cc3n2Cc2cccc(Cl)c2)CC[C@H]1F [Example 367, (3R,4R)-1-(1-(3-chlorobenzyl)-5,6-difluoro-1H-benzimidazol-2-yl)-4-fluoro-3-piperidinamine]
304 nM | CN(CC(F)(F)F)C(=O)Cn1c(N2CC[C@@H](F)[C@H](N)C2)nc2cc(F)c(F)cc21 (single isomer, unassigned) [Example 635]
102 nM | N[C@@H]1CN(c2nc3cc(F)c(F)cc3n2CC(=O)N2CCN(c3ncccn3)CC2)CC[C@H]1F [Example 624, 2-(2-((3R,4R)-3-amino-4-fluoropiperidin-1-yl)-5,6-difluoro-1H-benzo[d]imidazol-1-yl)-1-(4-(pyrimidin-2-yl)piperazin-1-yl)ethanone]
48.3 nM | N#CC1(F)CCN(C(=O)Cn2c(N3CC[C@@H](F)[C@H](N)C3)nc3cc(F)c(F)cc32)C1 (stereo partly drawn) [Example 618, 1-(2-(2-((3R,4R)-3-amino-4-fluoropiperidin-1-yl)-5,6-difluoro-1H-benzo[d]imidazol-1-yl)acetyl)-3-fluoropyrrolidine-3-carbonitrile]
5.85 nM | N#Cc1ccc(Cn2c(N3CCC(F)(F)[C@H](N)C3)nc3c(Cl)cccc32)cc1 [Example 407, (R)-4-((2-(3-amino-4,4-difluoropiperidin-1-yl)-4-chloro-1H-benzo[d]imidazol-1-yl)methyl)benzonitrile]
12.7 nM | N#Cc1ccc(Cn2c(N3CC[C@@H](F)[C@H](N)C3)nc3ncccc32)cc1 [Example 417, 4-((2-((3R,4R)-3-amino-4-fluoropiperidin-1-yl)-1H-imidazo[4,5-b]pyridin-1-yl)methyl)benzonitrile]
0.598 nM | N#Cc1ccc(Cn2c(N3CC[C@H](F)[C@H](N)C3)nc3c(F)cc(F)cc32)nc1 [Example 65, 6-((2-((3R,4S)-3-amino-4-fluoropiperidin-1-yl)-4,6-difluoro-1H-benzo[d]imidazol-1-yl)methyl)nicotinonitrile]
546 nM | N[C@@H]1CN(c2nc3cc(F)ccc3n2Cc2nc(C(F)(F)F)no2)CC[C@H]1F [Example 584, (3R,4R)-4-fluoro-1-(5-fluoro-1-((3-(trifluoromethyl)-1,2,4-oxadiazol-5-yl)methyl)-1H-benzo[d]imidazol-2-yl)piperidin-3-amine]
